Test results: the CheMixHub viscosity set

Test: xn = mol fraction of the nth substance listed

ClC(Cl)=C(Cl)Cl + Cc1ccc(C)cc1
303.15 K, 101 kPa
Conditions	viscosity [mPa·s]
x1 = 0.106	0.586
x1 = 0.1121	0.588
x1 = 0.212	0.607
x1 = 0.6339	0.704
x1 = 0.6982	0.719
x1 = 0.7773	0.738
x1 = 0.8517	0.757

CCCCCCCCCCCCCC + COc1ccccc1
viscosity [mPa·s], 101 kPa
Conditions	x1 = 0.1012	x1 = 0.2027	x1 = 0.3005	x1 = 0.3936	x1 = 0.4986	x1 = 0.6001	x1 = 0.6977	x1 = 0.7959	x1 = 0.8991
298.15 K	0.996	1.035	1.105	1.241	1.311	1.38	1.45	1.521	1.697
303.15 K	0.916	0.974	1.004	1.116	1.21	1.304	1.398	1.493	1.587
308.15 K	0.855	0.907	0.932	1.028	1.089	1.149	1.209	1.27	1.331

CCCCCCCCCCCCCC + CCCCOC(C)=O
298.15 K, 101.3 kPa
Conditions	viscosity [mPa·s]
x2 = 0.1284	1.825
x2 = 0.2404	1.622
x2 = 0.3362	1.467
x2 = 0.4227	1.339
x2 = 0.5018	1.23
x2 = 0.5367	1.183
x2 = 0.5715	1.142
x2 = 0.6959	0.9335
x2 = 0.8024	0.8736
x2 = 0.8903	0.7842
x2 = 0.948	0.7283

CCCCCO + CCCCCCCC
viscosity [mPa·s], 101 kPa
Conditions	298.15 K	318.15 K
x1 = 0.0618	0.537	0.426
x1 = 0.1297	0.57	0.449
x1 = 0.2063	0.617	0.484
x1 = 0.2744	0.671	0.517
x1 = 0.3509	0.749	0.57
x1 = 0.5159	1.007	0.72
x1 = 0.5831	1.166	0.813
x1 = 0.6979	1.536	1.025
x1 = 0.8127	2.072	1.298
x1 = 0.9043	2.694	1.611
x1 = 0.952	3.056	1.814

O=[N+]([O-])c1ccccc1 + CCCCCC
Conditions	viscosity [mPa·s]
293.17 K, 101.32 kPa, x1 = 0.183	0.408
293.27 K, 101.32 kPa, x1 = 0.453	0.761
293.65 K, 101.32 kPa, x1 = 0.419	0.697
293.66 K, 101.32 kPa, x1 = 0.732	1.09
293.77 K, 101.32 kPa, x1 = 0.287	0.552
293.77 K, 101.32 kPa, x1 = 0.36	0.552
294.1 K, 101.32 kPa, x1 = 0.559	0.799
294.57 K, 101.32 kPa, x1 = 0.183	0.4
294.75 K, 101.32 kPa, x1 = 0.419	0.651
294.75 K, 101.32 kPa, x1 = 0.629	0.881
294.85 K, 101.32 kPa, x1 = 0.453	0.692
295.17 K, 101.32 kPa, x1 = 0.287	0.54
295.17 K, 101.32 kPa, x1 = 0.36	0.54
295.88 K, 101.32 kPa, x1 = 0.732	1.05
296.05 K, 101.32 kPa, x1 = 0.559	0.775
296.3 K, 101.32 kPa, x1 = 0.183	0.395
296.4 K, 101.32 kPa, x1 = 0.453	0.665
296.45 K, 101.32 kPa, x1 = 0.629	0.861
296.57 K, 101.32 kPa, x1 = 0.287	0.529
296.57 K, 101.32 kPa, x1 = 0.36	0.529
296.85 K, 101.32 kPa, x1 = 0.419	0.621
297.45 K, 101.32 kPa, x1 = 0.732	1.03
298.07 K, 101.32 kPa, x1 = 0.559	0.747
298.15 K, 101.32 kPa, x1 = 0.36	0.516
298.25 K, 101.32 kPa, x1 = 0.287	0.516
298.25 K, 101.32 kPa, x1 = 0.629	0.836
298.35 K, 101.32 kPa, x1 = 0.419	0.605
298.55 K, 101.32 kPa, x1 = 0.453	0.645
303.15 K, 101 kPa, x2 = 0.072	1.319
303.15 K, 101 kPa, x2 = 0.148	1.016
303.15 K, 101 kPa, x2 = 0.246	0.8236
303.15 K, 101 kPa, x2 = 0.318	0.6679
303.15 K, 101 kPa, x2 = 0.391	0.5916
303.15 K, 101 kPa, x2 = 0.51	0.4845
303.15 K, 101 kPa, x2 = 0.618	0.4107
303.15 K, 101 kPa, x2 = 0.735	0.3659
303.15 K, 101 kPa, x2 = 0.862	0.3216
